Data published in patent publication US6395755B1, “Benzothiophene pharmaceutical compounds” (Eli Lilly and Company, priority 1995, dated 2002).
Read-outs that look alike come from different tables or passages of the source.

Experiments:
[1] = test system: uterus of ovariectomized (OVX) rats; design: species or system Sprague Dawley rats; details: rat, in vivo, po, 0.1 mg/kg/day
Experimental: (§1) In the examples illustrating the methods, a post-menopausal model was used in which effects of different treatments upon circulating lipids were determined.
(§2) Seventy-five day old female Sprague Dawley rats (weight range of 200 to 225 g) are obtained from Charles River Laboratories (Portage, Mich.). The animals are either bilaterally ovariectomized (OVX) or exposed to a Sham surgical procedure at Charles River Laboratories, and then shipped after one week. Upon arrival, they are housed in metal hanging cages in groups of 3 or 4 per cage and have ad libitum access to food (calcium content approximately 0.5%) and water for one week. Room temperature is maintained at 22.2° ±1.7° C. with a minimum relative humidity of 40%. The photoperiod in the room is 12 hours light and 12 hours dark.
Dosing Regimen Tissue Collection. After a one week acclimation period (therefore, two weeks post-OVX) daily dosing with test compound is initiated. 17α-ethynyl estradiol or the test compound is given orally, unless otherwise stated, as a suspension in 1% carboxymethylcellulose or dissolved in 20% cyclodextrin. Animals were dosed daily for 4 days. […] The animals are then sacrificed by asphyxiation with CO2, the uterus is removed through a midline incision, and a wet uterine weight is determined.

[2] = test system: Uterine Eosinophil Peroxidase (EPO); design: species or system Sprague Dawley rats; details: rat, in vivo; for Uterine EPO (V. max): po
Excerpt: as §2
(§3) Dosing Regimen Tissue Collection. After a one week acclimation period (therefore, two weeks post-OVX) daily dosing with test compound is initiated. 17α-ethynyl estradiol or the test compound is given orally, unless otherwise stated, as a suspension in 1% carboxymethylcellulose or dissolved in 20% cyclodextrin. Animals were dosed daily for 4 days. Following the dosing regimen, animals are weighed and anesthetized with a ketamine: Xylazine (2:1, V:V) mixture and a blood sample is collected by cardiac puncture. The animals are then sacrificed by asphyxiation with CO2, the uterus is removed through a midline incision, and a wet uterine weight is determined.
Uterine Eosinophil Peroxidase (EPO) Assay. Uteri are kept at 4° C. until time of enzymatic analysis. The uteri are then homogenized in 50 volumes of 50 mM Tris buffer (pH−8.0) containing 0.005% Triton X-100. Upon addition of 0.01% hydrogen peroxide and 10 mM O-phenylenediamine (final concentrations) in Tris buffer, increase in absorbance is monitored for one minute at 450 nm. The presence of eosonophils in the uterus is an indication of estrogenic activity of a compound. The maximal velocity of a 15 second interval is determined over the initial, linear portion of the reaction curve.

[3] = test system: femur density of ovariectomized rats; assay: Osteoporosis Test Procedure (35 day OVX rat, femur density); format: in vivo; details: oral in 20% hydroxypropyl β-cyclodextrin, daily for 35 days
Experimental: Following the General Preparation Procedure, infra, the rats are treated daily for 35 days (6 rats per treatment group) and sacrificed by carbon dioxide asphyxiation on the 36th day. The 35 day time period is sufficient to allow maximal reduction in bone density, measured as described herein. At the time of sacrifice, the uteri are removed, dissected free of extraneous tissue, and the fluid contents are expelled before determination of wet weight in order to confirm estrogen deficiency associated with complete ovariectomy. […] The uteri are then placed in 10% neutral buffered formalin to allow for subsequent histological analysis. The right femurs are excised and digitilized x-rays generated and analyzed by an image analysis program (NIH image) at the distal metaphysis. The proximal aspect of the tibiae from these animals are also scanned by quantitative computed tomography. In accordance with the above procedures, compounds of the present invention and ethynyl estradiol (EE2) in 20% hydroxypropyl β-cyclodextrin are orally administered to test animals.

Serum cholesterol = Serum cholesterol in ovariectomized rats (post-menopausal model); format: in vivo, Sprague Dawley rats; details: oral; for Serum Cholesterol (% decrease vs. OVX): daily for 4 days
Experimental: as §1, §2, §3
Cholesterol Analysis. Blood samples are allowed to clot at room temperature for 2 hours, and serum is obtained following centrifugation for 10 minutes at 3000 rpm. Serum cholesterol is determined using a Boehringer Mannheim Diagnostics high performance cholesterol assay. Briefly the cholesterol is oxidized to cholest-4-en-3-one and hydrogen peroxide. The hydrogen peroxide is then reacted with phenol and 4-aminophenazone in the presence of peroxidase to produce a p-quinone imine dye, which is read spectrophotemetrically at 500 nm. Cholesterol concentration is then calculated against a standard curve. The entire assay is automated using a Biomek Automated Workstation.

Uterine EPO (V. max) ([2]; 0.1 mg/kg) | Uterine EPO (V. max) ([2]; 0.01 mg/kg) | Uterine EPO (V. max) ([2]; 1 mg/kg) | Uterine EPO (V. max) ([2]; 5 mg/kg) | SMILES | Effect on uterine weight compared to ovariectomized animals (in words) [1] | Eosinophil infiltration into the uterus (stromal layer), in words [2] | Prevention of loss of femur density / bone loss after ovariectomy [3] | Effect on serum cholesterol compared to ovariectomized controls (in words) (Serum cholesterol; OVX rats, EE2 at 0.1 mg/kg/day) | Serum Cholesterol (% decrease vs. OVX) (Serum cholesterol; dose 0.1 mg/kg) [%] | Serum Cholesterol (% decrease vs. OVX) (Serum cholesterol; dose 0.01 mg/kg) [%] | Serum Cholesterol (% decrease vs. OVX) (Serum cholesterol; dose 1.0 mg/kg) [%] | Serum Cholesterol (% decrease vs. OVX) (Serum cholesterol; dose 5.0 mg/kg) [%]
189.6 |  |  |  | C#C[C@]1(O)CC[C@H]2[C@@H]3CCc4cc(O)ccc4[C@H]3CC[C@@]21C [EE2, 17α-ethynyl estradiol, reference compound] | substantially greater than the uterine weight of ovariectomized test animals | substantial, expected increase in eosinophil infiltration | prevented this loss | caused a decrease in serum cholesterol | 84.8 |  |  | 
5.1 | 4.2 | 7.8 | 5.7 | CC(O)(c1ccc(OCCN2CCCCC2)cc1)c1c(-c2ccc(O)cc2)sc2cc(O)ccc12 (stereo not drawn) [Example 2] |  |  |  |  | 19.4 | −10.2 | 50.7 | 53.9
3.6 | 4.5 | 5.4 | 3.9 | CC(c1ccc(OCCN2CCCCC2)cc1)c1c(-c2ccc(O)cc2)sc2cc(O)ccc12 (stereo not drawn) [Example 4] |  |  |  |  | 10.4 | −26.5 | 43.9 | 35.2
3.6 | 4.2 | 4.5 | 35.1 | Oc1ccc(-c2sc3cc(O)ccc3c2C(O)(c2ccccc2)c2ccc(OCCN3CCCCC3)cc2)cc1 (stereo not drawn) [Example 8] |  |  |  |  | −3.1 | −9.0 | 14.0 | 56.9
5.4 | 3.9 | 4.5 |  | O=C(c1ccc(OCCN2CCCCC2)cc1)c1c(-c2ccc(O)cc2)sc2cc(O)ccc12 [Raloxifene, reference compound] |  |  |  |  | 30.4 | 12.0 | 60.6 | 
